System: Agrobacterium tumefaciens
Assay: Inhibition of acetosyringone-induced virB::lacZ expression in Agrobacterium tumefaciens A348/pSW209
Format: functional, organism-based

Compound | IC50
COc1cccc2c1C(=O)OC2O (configuration not stated) | > 200 µM
COc1ccc(N(O)C(=O)C=O)c(O)c1 | 30 µM
O=CCC(=O)N(O)c1ccccc1 | > 400 µM
COc1ccccc1C(=O)C=O | 34 µM
O=CC(=O)Nc1ccccc1 | 35 µM
CCCCC(=O)c1c(OC)cc(OC)cc1C(=O)O | > 200 µM
COc1cc(OC)c(C(C)=O)c(C(C)=O)c1 | > 200 µM
COc1cc(C=O)cc(OC)c1 | > 200 µM
COc1cc(CC(=O)O)c(C=O)c(OC)c1 | > 200 µM
COc1cc(OC)c2c(c1N)C(=O)OC2O (configuration not stated) | > 200 µM
COc1cc(OC)c2c(c1NC(C)=O)C(=O)OC2O (configuration not stated) | > 200 µM
COc1cc(OC)c(C(C)=O)c(C(=O)O)c1 | > 200 µM
O=Cc1ccccc1C(=O)O | > 200 µM
COc1ccc(C=O)c(OC)c1 | > 200 µM
COc1ccc2c(c1)C(O)OC2=O (configuration not stated) | 41 µM
COc1cc(OC)c2c(c1O)C(=O)OC2O (configuration not stated) | > 100 µM
O=CC(=O)N(O)c1ccccc1 | 25 µM
COc1ccc2c(c1)C(=O)OC2O (configuration not stated) | > 200 µM
COc1cc(OC)c([N+](=O)[O-])c2c1C(O)OC2=O (configuration not stated) | > 200 µM
COc1cccc2c1C(O)OC2=O (configuration not stated) | > 200 µM
O=CC(=O)c1ccccc1 [PHENYLGLYOXAL] | 40 µM

Continued, values first:

IC50 | Compound
25 µM | O=CC(=O)Oc1ccccc1
25 µM | COc1cc(OC)c(C=O)c(C(C)=O)c1
25 µM | O=C1OC(O)c2ccccc21 (configuration not stated)
20 µM | CCCCC(=O)c1ccccc1C=O
8 µM | CCOc1cc(OCC)c2c(c1)C(=O)OC2O (configuration not stated)
25 µM | COc1cc(C=O)c(C(C)=O)c(OC)c1
10 µM | CCCCC(=O)c1cc(OC)cc(OC)c1C=O
25 µM | CC(=O)c1ccccc1C=O
< 1 µM | COc1ccc(N(OC)C(=O)C=O)c(O)c1
10 µM | CCCCC(=O)c1c(C=O)cc(OC)cc1OC
8 µM | COc1cc(OC)c(C=O)c(C(=O)O)c1
